The values below come from patent US12570641B2, “Solid forms of a CDK4 inhibitor” (Pfizer Inc., priority 2020, dated 2026).

SMILES strings stand for the structures.

A short description of the series: Solid form of control and stressed samples by powder X-ray diffraction. The class given is physicochemical. Here is the method:
Powder X-ray diffraction analysis was conducted using a Bruker AXS D8 Endeavor diffractometer equipped with a copper radiation source. The divergence slit was set at 15 mm continuous illumination. Diffracted radiation was detected by a PSD-Lynx Eye detector, with the detector PSD opening set at 2.99 degrees. The X-ray tube voltage and amperage were set to 40 kV and 40 mA respectively. Data was collected at the copper (Cu) wavelength (CuKα=[…]) in the Theta-Theta goniometer from 3.0 to 40.0 degrees 2-Theta. A step size of 0.01 degrees and a step time of 1.0 second was used for Form 2, Form 6 and Form 8. A step size of 0.02 degrees and a step time of 0.3 seconds was used for Form 11. The antiscatter screen was set to a fixed distance of 1.5 mm. Samples were rotated during data collection. Samples were prepared by placing them in a silicon low background sample holder and rotated during collection. Data were collected using Bruker DIFFRAC Plus software and analysis was performed by EVA diffract plus software.
Powder X-ray diffraction was used to assess the solid form of the control and the stressed samples.

As to `CC(C)n1c(C(C)(C)O)nc2c(F)cc(-c3nc(N[C@@H]4CCOC[C@H]4O)ncc3Cl)cc21` [Form 2, 1,5-anhydro-3-({5-chloro-4-[4-fluoro-2-(2-hydroxypropan-2-yl)-1-(propan-2-yl)-1H-benzimidazol-6-yl]pyrimidin-2-yl}amino)-2,3-dideoxy-D-threo-pentitol monohydrate], the “solid form change by PXRD” value is recorded as “disorder” (40° C./5% RH for six weeks), “No form change was detected” (40° C./75% RH for six weeks), “Slight disorder” (70° C./5% RH for one week) and “No form change was detected” (70° C./75% RH for one week).
